Laboratory results reported in BindingDB's records for doi:10.1021/jm00104a010 (University of Illinois At Chicago, 1992).

Molecular target: Reverse transcriptase (Human immunodeficiency virus 2)
Assay: Inhibition of purified HIV-2 reverse transcriptase

Row | IC50 [µM] | Compound
1 | 478 | O=C(O)c1cc(NS(=O)(=O)c2ccc(-c3ccc(S(=O)(=O)Nc4cc(C(=O)O)c(O)c(S(=O)(=O)O)c4)cc3)cc2)cc(S(=O)(=O)O)c1O
2 | 170 | O=C(O)CCCCCCCCC(=O)Nc1cc(S(=O)(=O)O)cc2cc(S(=O)(=O)O)cc(O)c12
3 | 452 | Nc1c(S(=O)(=O)O)cc2cc(S(=O)(=O)O)cc(O)c2c1O
4 | 122 | O=C(CCCCCCCCC(=O)Nc1cc(S(=O)(=O)O)cc2cc(S(=O)(=O)O)cc(O)c12)Nc1cc(S(=O)(=O)O)cc2cc(S(=O)(=O)O)cc(O)c12
